Here are results for one compound from article PMC9401487 (Clinical Cancer Research, 2021).

Like-named read-outs stand apart in the source and are kept apart here.

Usually GI50 stands for the concentration giving 50% growth inhibition.

In series [1] the test system is LoVo colorectal cancer cell line. Briefly: LoVo growth inhibition, ceralasertib alone or with carboplatin. It is filed as cell-based, human. Particulars: Homo sapiens, LoVo, read-out: GI50 (50% growth inhibition).
A further series deals with patients. Particulars: cited from earlier work.

As for `CNCc1ccc(-c2cc(-c3nc(-c4ccc(S(=O)(=O)C(C)C)cc4)cnc3N)on2)cc1` [berzosertib], in series [1], the GI50 came to 90 nM. Moreover, the Tolerability entry in the series on patients (90 mg/m^2 + carboplatin AUC5) was “tolerated”; in the series on patients (240 mg/m^2 days 1 and 8 every 21 days + carboplatin AUC5 day 1) it was “not tolerated”. The “Patients with grade 3/4 neutropenia” value with patients (240 mg/m^2 + carboplatin AUC5, 3 patients) is given as 3 patients.
